Paper PMC5152921, “Evolutionary and Functional Diversification of the Vitamin D Receptor-Lithocholic Acid Partnership” (PLoS ONE, 2016)

Experiments:
Assay in all cases: Transient transactivation assay (XREM-Luc, HepG2)
Type in all cases: cell-based
Conditions in all cases: 100 μM LCA
[1] = target: T1, Bichir VDR (Polypterus senegalus, UniProt A0A088GJ14)
T1 sequence (A0A088GJ14 1-421): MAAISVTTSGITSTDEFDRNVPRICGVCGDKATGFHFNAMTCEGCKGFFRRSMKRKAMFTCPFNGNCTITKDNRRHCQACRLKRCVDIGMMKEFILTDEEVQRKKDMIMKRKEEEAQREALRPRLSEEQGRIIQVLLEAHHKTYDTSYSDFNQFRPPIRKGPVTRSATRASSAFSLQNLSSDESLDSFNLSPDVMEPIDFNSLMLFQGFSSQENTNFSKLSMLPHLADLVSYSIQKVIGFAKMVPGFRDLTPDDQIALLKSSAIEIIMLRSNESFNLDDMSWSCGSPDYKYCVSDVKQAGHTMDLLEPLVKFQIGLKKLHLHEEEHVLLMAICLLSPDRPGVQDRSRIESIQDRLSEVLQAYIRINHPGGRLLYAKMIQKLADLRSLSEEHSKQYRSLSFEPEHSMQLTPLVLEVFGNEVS
T1 sequence (P19793 1-462 partner): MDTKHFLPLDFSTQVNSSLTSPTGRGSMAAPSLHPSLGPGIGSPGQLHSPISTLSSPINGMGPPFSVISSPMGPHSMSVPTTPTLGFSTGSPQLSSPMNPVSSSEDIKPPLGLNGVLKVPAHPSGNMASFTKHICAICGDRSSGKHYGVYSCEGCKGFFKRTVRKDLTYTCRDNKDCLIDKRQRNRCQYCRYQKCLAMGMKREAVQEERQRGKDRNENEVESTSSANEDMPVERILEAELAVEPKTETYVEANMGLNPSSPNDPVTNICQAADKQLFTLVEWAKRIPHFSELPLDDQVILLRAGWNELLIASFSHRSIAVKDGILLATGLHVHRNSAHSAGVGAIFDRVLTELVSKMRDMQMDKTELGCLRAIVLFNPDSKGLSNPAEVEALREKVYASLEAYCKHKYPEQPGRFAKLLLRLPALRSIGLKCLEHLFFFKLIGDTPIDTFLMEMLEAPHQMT
Experimental: (§1) HepG2 cells (American Type Culture Collection #HB-8065) were cultured in T75 flasks with vented caps (Corning Life Sciences, Corning, NY) using Minimum Essential Medium (MEM) with phenol red supplemented with 10% fetal bovine serum, 1 mM sodium pyruvate, and 1X MEM non-essential amino acids. Cells were maintained following standard protocols in a 5% CO2 incubator set at 37°C, and split when 80–90% confluent.
(§2) For the transient transactivation assays, HepG2 cells were seeded in 96-well tissue culture plates at a density of 2.5x10^4 cells per well in complete phenol red-free MEM, and allowed to recover overnight. Transfections were performed the following day using Lipofectamine 2000 (Life Technologies, Grand Island, NY) as described previously. For functional comparisons, 89.7 ng/well of full-length pSG5-VDR was co-transfected with 19.2 ng/well human XREM-Luc reporter and 4.5 ng/well of pRL-CMV as an internal luciferase control. Coregulator studies included the addition of 18.3 ng/well of human coregulators (pCDNA-RXRWT, pCDNA-RXRAF2, pSG5-SRC1, pSG5-GRIP1 or pSG5-ACTR) where indicated. […] Controls include 120 nM 1,25D3 as a positive control, and ethanol as a vehicle control. Twenty-four hours post-exposure cells were tested for luciferase activity using the Dual-Glo Luciferase Assay System (Promega Corporation, Madison, WI) according to the manufacturer’s protocols. Luciferase data were first normalized to the pRL-CMV internal luciferase control. […] To calculate the impact of coregulators on VDR transactivation, VDR response in the presence of coregulators was normalized to VDR alone. All experiments were repeated 3 times and conducted as groups of 4 replicate wells. VDR response in the absence of coregulators was analyzed using a 1-way ANOVA followed by Dunnett’s multiple comparisons test. To examine the effects of different coregulators on VDR activation, data were analyzed using a 2-way ANOVA followed by Bonferroni’s multiple comparisons test in GraphPad Prism (GraphPad Inc, San Diego, CA).

[2] = target: T2, Human VDR (Homo sapiens, UniProt P11473)
T2 sequence (P11473 1-427): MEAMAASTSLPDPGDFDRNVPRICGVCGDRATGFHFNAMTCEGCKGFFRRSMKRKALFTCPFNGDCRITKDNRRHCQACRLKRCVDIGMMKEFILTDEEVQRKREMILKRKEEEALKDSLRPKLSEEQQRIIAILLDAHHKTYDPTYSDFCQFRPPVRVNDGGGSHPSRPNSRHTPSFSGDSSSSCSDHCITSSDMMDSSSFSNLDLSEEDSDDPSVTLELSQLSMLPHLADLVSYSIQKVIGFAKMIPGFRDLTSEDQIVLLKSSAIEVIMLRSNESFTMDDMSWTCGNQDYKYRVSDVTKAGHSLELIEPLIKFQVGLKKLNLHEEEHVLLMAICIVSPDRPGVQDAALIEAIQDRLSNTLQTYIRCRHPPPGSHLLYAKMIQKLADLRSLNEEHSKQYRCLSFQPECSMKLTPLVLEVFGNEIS
Experimental: as §1, §2

[3] = target: T3, Lamprey VDR (Petromyzon marinus, UniProt Q7ZZY9)
T3 sequence (Q7ZZY9 1-406): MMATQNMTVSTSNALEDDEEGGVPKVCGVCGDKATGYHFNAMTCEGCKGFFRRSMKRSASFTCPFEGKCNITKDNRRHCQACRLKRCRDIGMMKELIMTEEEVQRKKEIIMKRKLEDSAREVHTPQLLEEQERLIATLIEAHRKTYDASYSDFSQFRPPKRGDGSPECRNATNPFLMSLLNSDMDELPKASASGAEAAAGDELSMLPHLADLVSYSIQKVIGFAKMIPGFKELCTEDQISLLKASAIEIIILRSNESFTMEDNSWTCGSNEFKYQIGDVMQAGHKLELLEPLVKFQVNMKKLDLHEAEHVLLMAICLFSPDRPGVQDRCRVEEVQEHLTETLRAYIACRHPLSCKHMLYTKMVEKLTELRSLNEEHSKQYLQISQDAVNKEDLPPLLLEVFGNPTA
T3 sequence (P19793 1-462 partner): T1 sequence (P19793 1-462 partner)
Experimental: as §1, §2

[4] = any SRC/p160 co-activator, presence or absence of RXRWT
[5] = co-transfected human RXRWT, vs VDR alone

C[C@H](CCC(=O)O)[C@H]1CC[C@H]2[C@@H]3CC[C@@H]4C[C@H](O)CC[C@]4(C)[C@H]3CC[C@]12C [LCA, 5β-cholanic acid-3α-ol]
Effect of SRC/p160 co-activators on VDR transactivation [1, 4]: No change in transactivation
Effect of exogenous human RXRWT on VDR transactivation [1, 5]: no effect
Effect of exogenous human RXRWT on VDR transactivation [2, 5]: significantly enhanced transactivation
Effect of RXRWT+SRC1 or RXRWT+GRIP1 on VDR transactivation ([2]; compared to either coregulator individually): significantly enhanced VDR transactivation
Effect of SRC/p160 co-activators on VDR transactivation [3, 4]: No change in transactivation
Effect of exogenous human RXRWT on VDR transactivation [3, 5]: no effect
